Activity calls are given as the source filed them.
Tests used:
Format in all cases: functional, organism-based
Penicillium oxalicum = assay: Antimicrobial activity against Penicillium oxalicum CBS 219.30 at 25 ug
Escherichia coli = assay: Antimicrobial activity against Escherichia coli ATCC 25922 at 25 ug
Bacillus subtilis = assay: Antimicrobial activity against Bacillus subtilis ATCC 6633 at 25 ug
Micrococcus luteus = assay: Antimicrobial activity against Micrococcus luteus ATCC 9341 at 25 ug

Measured: Activity

CN1Cc2c(ccc3c2OCO3)-c2ccc3cc4c(cc3c21)OCO4
inactive: Penicillium oxalicum | Escherichia coli | Bacillus subtilis | Micrococcus luteus

COc1cc2c(c3c1-c1ccc4cc5c(cc4c1N(C)C3)OCO5)OCO2
inactive: Penicillium oxalicum | Escherichia coli | Bacillus subtilis | Micrococcus luteus

COc1ccc2c(c1OC)CN(C)c1c-2cc(OC)c2cc3c(cc12)OCO3
inactive: Penicillium oxalicum | Escherichia coli | Bacillus subtilis | Micrococcus luteus

COc1ccc2c(c1OC)CN(C)c1c-2ccc2cc3c(cc12)OCO3
inactive: Penicillium oxalicum | Escherichia coli | Bacillus subtilis | Micrococcus luteus
